These results are taken from patent publication US9279803B2, “Method of identifying patients not suitable for high-dose cyclophosphamide treatment” (The Johns Hopkins University, priority 2006, dated 2016).

For the assay, the system named is white blood cell count (WBC). The conditions noted are these: preliminary results. On the procedure:
Additionally, ALDH levels in the target peripheral lymphocytes of high-dose cyclophosphamide treatment may render those cells resistant to cyclophosphamide and can lead to worsened clinical outcome or disease relapse. In a series of multiple sclerosis (MS) patients, blood was analyzed to determine the relative levels of aldehyde dehydrogenease. The banked blood was obtained from MS patients prior to treatment with high-dose cyclophosphamide.

As for `O=P1(N(CCCl)CCCl)NCCCO1` (centres unmarked) [cyclophosphamide], under “MS patient who did not respond and relapsed, higher ALDH activity in banked blood”, the “nadir WBC following high-dose cyclophosphamide treatment” value was found to be 24. In addition, for the setting “MS patient who responded, much lower ALDH activity in banked blood”, the “WBC reached following high-dose cyclophosphamide treatment” value was 0.
